Laboratory results reported in ChEMBL document CHEMBL1932978, “Inhibitors of human 2,3-oxidosqualene cyclase (OSC) discovered by virtual screening” (Bioorg Med Chem Lett, 2012).
pIC50: −log10 of the molar value.

Assays:
[1] = target: T1, Lanosterol synthase (Homo sapiens) (UniProt P48449); test: Inhibition of human OSC expressed in Saccharomyces cerevisiae at 20 uM by gas chromatography relative to LDAO2
T1 sequence (whole entry): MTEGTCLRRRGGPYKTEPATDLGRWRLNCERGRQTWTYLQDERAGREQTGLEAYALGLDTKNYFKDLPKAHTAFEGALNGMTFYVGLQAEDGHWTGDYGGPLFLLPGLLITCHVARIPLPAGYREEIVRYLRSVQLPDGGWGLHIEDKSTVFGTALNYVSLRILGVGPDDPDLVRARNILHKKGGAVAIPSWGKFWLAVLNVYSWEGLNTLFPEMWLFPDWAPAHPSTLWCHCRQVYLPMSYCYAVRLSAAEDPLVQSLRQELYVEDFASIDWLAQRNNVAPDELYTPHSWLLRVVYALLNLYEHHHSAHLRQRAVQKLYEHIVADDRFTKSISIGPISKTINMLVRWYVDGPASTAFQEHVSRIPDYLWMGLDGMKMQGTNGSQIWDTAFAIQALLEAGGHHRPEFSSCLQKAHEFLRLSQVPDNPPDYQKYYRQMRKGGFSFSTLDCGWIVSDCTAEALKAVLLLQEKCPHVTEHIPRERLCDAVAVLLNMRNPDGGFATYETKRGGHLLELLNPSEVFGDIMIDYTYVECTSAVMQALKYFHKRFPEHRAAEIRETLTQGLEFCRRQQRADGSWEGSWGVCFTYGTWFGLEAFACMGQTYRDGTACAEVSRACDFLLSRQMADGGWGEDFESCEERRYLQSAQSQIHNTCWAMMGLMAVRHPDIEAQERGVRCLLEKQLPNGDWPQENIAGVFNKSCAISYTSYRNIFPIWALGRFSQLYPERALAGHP

Lanosterol synthase = target: T2, Lanosterol synthase (Homo sapiens, UniProt P48449); test: Inhibition of human OSC expressed in Saccharomyces cerevisiae by gas chromatography
T2 sequence (P48449 whole entry): T1 sequence (whole entry)

Row | SMILES | inhibition [1] [%] | pIC50 (Lanosterol synthase)
1 | COc1ccc(-n2c(C)cc(CNCc3ccc(CN(C)C)cc3)c2C)cc1 | 75 | –
2 | CCCCCCCCCCCC[N+](C)(C)[O-] | 100 | 5.20
3 | CN(C)Cc1ccc(CNC(=O)c2ccc(C(F)(F)F)cc2)cc1 | 101 | 5.86
4 | S=C(NCc1ccccc1)Nc1ccc(Cc2ccncc2)cc1 | 96 | 5.32
5 | CN(C)Cc1ccc(CNC(=O)Nc2ccc(Cl)cc2)cc1 | 97 | 5.51
6 | O=C(CCc1ccc(CN2CCCC2)cc1)Cn1cnc2sc(-c3ccccc3)cc2c1=O | 87 | 5.30

Results, then the compound that gave them:

Row | inhibition [1] [%] | pIC50 (Lanosterol synthase) | SMILES
7 | 77 | – | CN(C)Cc1ccc(CNCc2cnn(-c3ccccc3)n2)cc1
8 | 83 | 4.97 | CN(C)Cc1ccc(CNC(=O)COc2ccc3ccccc3c2)cc1
9 | 59 | – | O=C(Cc1ccc(Cl)cc1)c1ccc(C(=O)NCCCn2ccnc2)[nH]1
10 | 27 | – | Cc1cc(CNCc2ccc(CN(C)C)cc2)c(C)n1CC(C)C
